In the supplement of paper PMC10307832:

Assays:
Experiment in all cases: relative viability (nuclei count vs DMSO), 5 days (fraction); higher = more cells survive
DM3189 = compound: C1CN(CCN1)C2=CC=C(C=C2)C3=CN4C(=C(C=N4)C5=CC=NC6=CC=CC=C56)N=C3 [DM3189]
Summary of the method: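 Lung cancer cell lines in 1536-well plates were kept overnight at 37 °C, then pinned with five library-drug doses (not always all listed) spaced by √10 on vehicle-anchored plates. After 5 days without medium change, cells were fixed, permeabilised and Hoechst-stained in one step, imaged at 4×, and nuclei were counted with MetaXpress. Viability is treated-well nuclei divided by vehicle-well nuclei, taken as the median over plates. Plates passed only with control CV below 25% and at least one doubling.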

DM3189 + Bortezomib = compound: C1CN(CCN1)C2=CC=C(C=C2)C3=CN4C(=C(C=N4)C5=CC=NC6=CC=CC=C56)N=C3 [DM3189] + CC(C)C[C@H](NC(=O)[C@H](Cc1ccccc1)NC(=O)c1cnccn1)B(O)O [Bortezomib] (partner 0.002 µM)
Summary of the method: (§1)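 Relative viability equals treated-well nuclei counts divided by vehicle-well nuclei counts. Counts came from 4× images of lung cancer cell lines grown in 1536-well plates for 5 days after pin-tool dosing on the day after seeding. Dosing used one drug alone or a fixed anchor-drug dose plus five library-drug doses (not always all listed) in √10 steps, and values are medians of duplicate plates.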

DM3189 + Pictilisib = compound: C1CN(CCN1)C2=CC=C(C=C2)C3=CN4C(=C(C=N4)C5=CC=NC6=CC=CC=C56)N=C3 [DM3189] + CS(=O)(=O)N1CCN(Cc2cc3nc(-c4cccc5[nH]ncc45)nc(N4CCOCC4)c3s2)CC1 [Pictilisib] (partner 1 µM)
Summary of the method: as §1

DM3189 + Navitoclax = compound: C1CN(CCN1)C2=CC=C(C=C2)C3=CN4C(=C(C=N4)C5=CC=NC6=CC=CC=C56)N=C3 [DM3189] + CC1(C)CCC(c2ccc(Cl)cc2)=C(CN2CCN(c3ccc(C(=O)NS(=O)(=O)c4ccc(N[C@H](CCN5CCOCC5)CSc5ccccc5)c(S(=O)(=O)C(F)(F)F)c4)cc3)CC2)C1 [Navitoclax] (partner 0.5 µM)
Summary of the method: as §1

DM3189 + Foretinib = compound: C1CN(CCN1)C2=CC=C(C=C2)C3=CN4C(=C(C=N4)C5=CC=NC6=CC=CC=C56)N=C3 [DM3189] + COc1cc2c(Oc3ccc(NC(=O)C4(C(=O)Nc5ccc(F)cc5)CC4)cc3F)ccnc2cc1OCCCN1CCOCC1 [Foretinib] (partner 0.25 µM)
Summary of the method: as §1

DM3189 + Olaparib = compound: C1CN(CCN1)C2=CC=C(C=C2)C3=CN4C(=C(C=N4)C5=CC=NC6=CC=CC=C56)N=C3 [DM3189] + O=C(c1cc(Cc2n[nH]c(=O)c3ccccc23)ccc1F)N1CCN(C(=O)C2CC2)CC1 [Olaparib] (partner 8 µM)
Summary of the method: as §1

DM3189 + Lapatinib = compound: C1CN(CCN1)C2=CC=C(C=C2)C3=CN4C(=C(C=N4)C5=CC=NC6=CC=CC=C56)N=C3 [DM3189] + CS(=O)(=O)CCNCc1ccc(-c2ccc3ncnc(Nc4ccc(OCc5cccc(F)c5)c(Cl)c4)c3c2)o1 [Lapatinib] (partner 2 µM)
Summary of the method: as §1

DM3189 + Crizotinib = compound: C1CN(CCN1)C2=CC=C(C=C2)C3=CN4C(=C(C=N4)C5=CC=NC6=CC=CC=C56)N=C3 [DM3189] + C[C@@H](Oc1cc(-c2cnn(C3CCNCC3)c2)cnc1N)c1c(Cl)ccc(F)c1Cl [Crizotinib] (partner 1 µM)
Summary of the method: as §1

DM3189 + Linsitinib = compound: C1CN(CCN1)C2=CC=C(C=C2)C3=CN4C(=C(C=N4)C5=CC=NC6=CC=CC=C56)N=C3 [DM3189] + C[C@]1(O)C[C@@H](c2nc(-c3ccc4ccc(-c5ccccc5)nc4c3)c3c(N)nccn32)C1 [Linsitinib] (partner 1 µM)
Summary of the method: as §1

DM3189 + Alpelisib = compound: C1CN(CCN1)C2=CC=C(C=C2)C3=CN4C(=C(C=N4)C5=CC=NC6=CC=CC=C56)N=C3 [DM3189] + Cc1nc(NC(=O)N2CCC[C@H]2C(N)=O)sc1-c1ccnc(C(C)(C)C(F)(F)F)c1 [Alpelisib] (partner 2 µM)
Summary of the method: as §1

NCI-H1299
relative viability (DM3189; 0.08 µM): 0.967 | relative viability (DM3189; 0.253 µM): 0.987 | relative viability (DM3189; 0.8 µM): 0.976 | relative viability (DM3189; 2.53 µM): 1.04 | relative viability (DM3189 + Bortezomib; first compound 0.08 µM): 1.06 | relative viability (DM3189 + Bortezomib; first compound 0.253 µM): 1.01 | relative viability (DM3189 + Bortezomib; first compound 0.8 µM): 1.01 | relative viability (DM3189 + Bortezomib; first compound 2.53 µM): 1.01 | relative viability (DM3189 + Pictilisib; first compound 0.08 µM): 0.911 | relative viability (DM3189 + Pictilisib; first compound 0.253 µM): 0.776 | relative viability (DM3189 + Pictilisib; first compound 0.8 µM): 0.59 | relative viability (DM3189 + Pictilisib; first compound 2.53 µM): 0.495 | relative viability (DM3189 + Navitoclax; first compound 0.08 µM): 1.03 | relative viability (DM3189 + Navitoclax; first compound 0.253 µM): 0.985 | relative viability (DM3189 + Navitoclax; first compound 0.8 µM): 1.02 | relative viability (DM3189 + Navitoclax; first compound 2.53 µM): 1.03 | relative viability (DM3189 + Foretinib; first compound 0.08 µM): 1.09 | relative viability (DM3189 + Foretinib; first compound 0.253 µM): 0.996 | relative viability (DM3189 + Foretinib; first compound 0.8 µM): 1.06 | relative viability (DM3189 + Foretinib; first compound 2.53 µM): 1.08 | relative viability (DM3189 + Olaparib; first compound 0.08 µM): 0.963 | relative viability (DM3189 + Olaparib; first compound 0.253 µM): 0.922 | relative viability (DM3189 + Olaparib; first compound 0.8 µM): 0.753 | relative viability (DM3189 + Olaparib; first compound 2.53 µM): 1.05 | relative viability (DM3189 + Lapatinib; first compound 0.08 µM): 1.01 | relative viability (DM3189 + Lapatinib; first compound 0.253 µM): 0.926 | relative viability (DM3189 + Lapatinib; first compound 0.8 µM): 0.899 | relative viability (DM3189 + Lapatinib; first compound 2.53 µM): 0.94 | relative viability (DM3189 + Crizotinib; first compound 0.08 µM): 0.99 | relative viability (DM3189 + Crizotinib; first compound 0.253 µM): 0.914 | relative viability (DM3189 + Crizotinib; first compound 0.8 µM): 0.924 | relative viability (DM3189 + Crizotinib; first compound 2.53 µM): 0.983 | relative viability (DM3189 + Linsitinib; first compound 0.08 µM): 0.998 | relative viability (DM3189 + Linsitinib; first compound 0.253 µM): 1.01 | relative viability (DM3189 + Linsitinib; first compound 0.8 µM): 0.958 | relative viability (DM3189 + Linsitinib; first compound 2.53 µM): 1.06 | relative viability (DM3189 + Alpelisib; first compound 0.08 µM): 1.09 | relative viability (DM3189 + Alpelisib; first compound 0.253 µM): 1.07 | relative viability (DM3189 + Alpelisib; first compound 0.8 µM): 0.968 | relative viability (DM3189 + Alpelisib; first compound 2.53 µM): 1.15
